According to publication PMC9266368, “Synthesis and Biological Evaluation of Small Molecules as Potential Anticancer Multitarget Agents” (International Journal of Molecular Sciences, 2022):
“And” between values parts separate entries of the source, which are not always exact repeats. Identical values can stand only once.

Experiments:
[1] = biological target: T1, total PD-L1 (tPD-L1) (Homo sapiens, UniProt Q9NZQ7); experiment: Total PD-L1 relative quantification by flow cytometry; type: cell-based; conditions: for tPD-L1 relative detection, A-549 / tPD-L1 relative detection, HT-29 / tPD-L1 relative detection, MCF-7: 24 h, 100 or 10 μM (Table 7), relative to DMSO control
T1 construct: endogenous in cells; host or cells: HT-29, A-549, MCF-7
Method: The study was carried out again on HT-29, A-549, and MCF-7 cell lines by flow cytometry after 24 h of treatment with the corresponding compounds. The presence of the targets in the whole cell were relatively determined by using DMSO-treated cells as a negative control and BMS-8 as a positive one for PD-L1 (Table 3).
To study the effect of the compounds on every biological target in cancer cell lines the compounds were used at a 100 or 10 μM dose, depending on their IC50 and the treated cell line.
(§1) For the assay, 10^5 cells per well were incubated for 24 h with the corresponding dose of the tested compound in a total volume of 500 μL of their growth media.
For the detection of total PD-L1, VEGFR-2, and c-Myc, the procedure was the same as for membrane targets, but after fixation, a treatment with 0,5% in PBS TritonTM X-100 was performed. The antibodies used for PD-L1 and VEGFR-2 were the ones previously described, and for the detection of c-Myc, it was FITC Rabbit monoclonal anti-c-Myc (ab223913).

[2] = system: HEK-293 (human embryonic kidney cells); experiment: MTT cell viability assay, HEK-293; type: cell-based; conditions: HEK293, 48 h, 2 days incubation, non-tumor cell line, average ±SD of three experiments
Method: (§2) The effects of triazole derivatives 1–26 on the cell viability were determined by MTT assay, and the IC50 values were determined toward the human tumor cell lines HT-29 (colon adenocarcinoma), A-549 (lung adenocarcinoma), and MCF-7 (breast adenocarcinoma), as well as toward the non-tumor cell line HEK-293 (human embryonic kidney cells).
(§3) In 96-well plates, 3 × 10^3 (A549 and HEK-293) or 5 × 10^3 (HT-29, MCF-7) cells per well were incubated with serial dilutions of the tested compounds in a total volume of 100 μL of their growth media. The 3-(4,5-dimethylthiazol-2-yl)-2,5-diphenyltetrazolium bromide (MTT; Sigma Chemical Co.) dye reduction assay in 96-well microplates was used. After 2 days of incubation (37 °C, 5% CO2 in a humid atmosphere), 10 μL of MTT (5 mg/mL in phosphate-buffered saline, PBS) was added to each well, and the plate was incubated for a further 3 h (37 °C). After that, the supernatant was discarded and replaced by 100 µL of DMSO to dissolve formazan crystals. The absorbance was then read at 550 nm by spectro-photometry. For all concentrations of compound, cell viability was expressed as the percentage of the ratio between the mean absorbance of treated cells and the mean absorbance of untreated cells. Three independent experiments were performed, and the IC50 values (i.e., concentration half inhibiting cell proliferation) were graphically determined by using GraphPad Prism 4 software (2019).

[3] = system: VEGFR-2 kinase activity; experiment: ADP assay of kinase activity in HT-29 cells; type: cell-based, human; conditions: 100 μM, 24 h; DMSO as negative control
Method: Finally, to assess the VEGFR-2 inhibitory activity of the selected compounds, namely 21, 22, and 23, we performed an ADP assay. This is a very useful technique that measures kinase activity by monitoring ADP accumulation in cell cultures instead of ATP concentrations.
For the assay, we used HT-29 cells that were previously treated with a 100 μM concentration of 21, 22, and 23, and we used DMSO as a negative control.
The kinase inhibitory activity of the selected compounds was studied as follows: first 10^5 HT-29 cells were seeded on a 12 well-plate, and then they were treated with 100 μM of the selected compounds for 24 h. Afterward, cells were collected, and the kinase activity was determined from collected pellets by following the manufacturer’s instructions indicated in the ADP Colorimetric Assay Kit II (Abcam S.A. reference ab282932).

[4] = system: MCF-7 (breast adenocarcinoma); experiment: MTT cell viability assay, MCF-7; type: cell-based; conditions: Homo sapiens, MCF7, 48 h, 2 days incubation, average ±SD of three experiments
Method: as §2, §3

[5] = biological target: T2, membrane VEGFR-2 (mVEGFR-2) (Homo sapiens, UniProt P35968); experiment: Membrane VEGFR-2 relative quantification by flow cytometry; type: cell-based; conditions: for mVEGFR-2 relative detection, A-549 / mVEGFR-2 relative detection, HT-29 / mVEGFR-2 relative detection, MCF-7: 24 h, 100 or 10 μM (Table 7), sorafenib 10 μM, percentage referred to DMSO control; for Inhibition of membrane VEGFR-2, HT-29: with respect to untreated cells
T2 construct: endogenous in cells; host or cells: HT-29, A-549, MCF-7
Method: The presence of both targets in the membrane was relatively determined by using DMSO-treated cells as a negative control.
as §1

[6] = system: HT-29 (colon adenocarcinoma); experiment: MTT cell viability assay, HT-29; type: cell-based; conditions: Homo sapiens, HT-29, 48 h, 2 days incubation, average ±SD of three experiments
Method: as §2, §3

T1 sequence (Q9NZQ7 19-290): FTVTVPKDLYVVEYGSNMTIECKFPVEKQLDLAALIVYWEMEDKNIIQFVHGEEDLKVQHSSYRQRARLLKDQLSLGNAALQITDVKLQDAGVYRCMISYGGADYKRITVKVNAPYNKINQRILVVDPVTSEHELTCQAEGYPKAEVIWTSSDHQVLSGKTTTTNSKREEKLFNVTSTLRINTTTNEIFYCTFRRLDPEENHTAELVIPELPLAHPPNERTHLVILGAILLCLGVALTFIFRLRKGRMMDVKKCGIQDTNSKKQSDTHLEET
T2 sequence (P35968 20-1356): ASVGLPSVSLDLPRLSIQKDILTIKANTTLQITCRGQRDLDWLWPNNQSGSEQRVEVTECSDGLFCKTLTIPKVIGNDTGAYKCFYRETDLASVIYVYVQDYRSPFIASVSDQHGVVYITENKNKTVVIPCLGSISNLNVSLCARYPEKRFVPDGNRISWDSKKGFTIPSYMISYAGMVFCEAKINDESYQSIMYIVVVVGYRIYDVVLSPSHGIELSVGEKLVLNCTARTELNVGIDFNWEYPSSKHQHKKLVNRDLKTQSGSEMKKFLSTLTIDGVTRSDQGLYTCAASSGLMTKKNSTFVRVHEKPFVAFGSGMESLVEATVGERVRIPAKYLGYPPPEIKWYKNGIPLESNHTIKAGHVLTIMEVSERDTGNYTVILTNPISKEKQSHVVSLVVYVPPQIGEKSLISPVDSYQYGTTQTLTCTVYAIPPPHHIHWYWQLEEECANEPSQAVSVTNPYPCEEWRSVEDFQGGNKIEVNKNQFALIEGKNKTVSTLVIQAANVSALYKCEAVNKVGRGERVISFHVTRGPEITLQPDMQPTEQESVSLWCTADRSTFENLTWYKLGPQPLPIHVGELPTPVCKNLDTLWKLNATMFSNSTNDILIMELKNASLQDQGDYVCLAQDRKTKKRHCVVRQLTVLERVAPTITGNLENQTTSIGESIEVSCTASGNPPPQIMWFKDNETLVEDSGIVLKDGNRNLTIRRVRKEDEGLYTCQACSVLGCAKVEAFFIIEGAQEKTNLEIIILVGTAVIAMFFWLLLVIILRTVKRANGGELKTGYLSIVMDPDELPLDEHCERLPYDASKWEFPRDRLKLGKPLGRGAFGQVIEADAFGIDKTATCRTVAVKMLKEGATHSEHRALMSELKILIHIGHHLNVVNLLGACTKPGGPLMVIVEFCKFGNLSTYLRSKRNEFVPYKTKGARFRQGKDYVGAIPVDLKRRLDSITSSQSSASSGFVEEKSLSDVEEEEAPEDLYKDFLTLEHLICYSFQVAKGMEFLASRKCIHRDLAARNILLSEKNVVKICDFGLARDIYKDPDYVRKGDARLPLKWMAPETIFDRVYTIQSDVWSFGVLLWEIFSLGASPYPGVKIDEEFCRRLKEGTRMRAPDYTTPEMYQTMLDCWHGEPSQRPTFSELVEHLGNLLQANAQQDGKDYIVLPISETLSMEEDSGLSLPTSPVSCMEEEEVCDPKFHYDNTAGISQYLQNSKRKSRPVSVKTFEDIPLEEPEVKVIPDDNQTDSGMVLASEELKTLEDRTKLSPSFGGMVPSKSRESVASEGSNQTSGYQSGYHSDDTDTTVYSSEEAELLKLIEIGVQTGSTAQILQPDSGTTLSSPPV

tPD-L1 relative detection, A-549 [1] [%] | tPD-L1 relative detection, HT-29 [1] [%] | tPD-L1 relative detection, MCF-7 [1] [%] | IC50 [4] [µM] | mVEGFR-2 relative detection, A-549 [5] [%] | mVEGFR-2 relative detection, HT-29 [5] | mVEGFR-2 relative detection, MCF-7 [5] [%] | melting point [°C] | IC50 [6] [µM] | Inhibition of total PD-L1, MCF-7 [1] | Inhibition of membrane VEGFR-2, HT-29 [5] [%] | Compound | IC50 [2] [µM] | Kinase activity measured in HT-29 cell cultures [3] [%]
78 ± 9 | 60 ± 6 | >100 | 11 ± 2 | >100 | 92 ± 5% | >100 | 112 to 115 | > 100 |  |  | Nc1ccc(-c2cn(Cc3ccccc3Cl)nn2)cc1 [Compound 21, 4-(1-(2-chlorobenzyl)-1H-1,2,3-triazol-4-yl)aniline] | > 100 | 46 ± 10
75 ± 10 | 52 ± 7 | 69 ± 7 | 8 ± 2 | >100 |  | >100 | 143 to 144 | > 100 | around 40% | ~40 | Nc1ccc(-c2cn(Cc3cccc(Cl)c3)nn2)cc1 [Compound 22, 4-(1-(3-chlorobenzyl)-1H-1,2,3-triazol-4-yl)aniline] | > 100 | 33 ± 4
81 ± 15 | 52 ± 3 | 61 ± 14 | 9 ± 6 | >100 | 65% and 65 ± 4% | >100 | 164 to 166 | > 100 | around 40% | ~40 | Nc1ccc(-c2cn(Cc3ccc(Cl)cc3)nn2)cc1 [Compound 23, 4-(1-(4-chlorobenzyl)-1H-1,2,3-triazol-4-yl)aniline] | > 100 | 31 ± 8
